Measurements: patent US10076519B2 (CYTOKINETICS, INC., priority 2010, dated 2018)

test system: rabbit skeletal myofibrils (fast skeletal myofibrils); assay: Activation of fast skeletal myofibrils (PUMA assay, PK/LDH-coupled ATPase at pCa25); format: biochemical; details: AC1.4 determined according to the procedure of Example 39; reported as class symbols
Description: Preparation of Fast Skeletal Myofibrils.
Rabbit skeletal myofibrils were prepared based upon the method of Herrmann et al. (Biochem. 32(28):7255-7263(1993). Myofibrils were prepared from rabbit psoas muscle purchased from Pel-Freez Biologicals (Arkansas) within 2 days of ordering, stored on ice. Minced muscle was homogenized in 10 volumes of ice-cold “standard” buffer (50 mM Tris, pH 7.4, 0.1M potassium acetate, 5 mM KCl, 2 mM DTT, 0.2 mM PMSF, 10 μM leupeptin, 5 μM pepstatin, and 0.5 mM sodium azide) containing 5 mM EDTA and 0.5% Triton X-100 using an Omni-Macro homogenizer. Myofibrils were recovered by low speed centrifugation (3000 rpm for 10 minutes) and washed 2 times in the Triton X-100 containing buffer to ensure removal of cellular membrane. Following the Triton washes, myofibrils were washed 3 times in “standard” buffer containing 2 mM magnesium acetate. A final wash in assay buffer (12 mM PIPES, pH 6.8, 60 mM KCl, 1 mM DTT) was performed and brought to 10% sucrose for flash freezing in liquid nitrogen and storage at −80° C.
Activation of Fast Skeletal Myofibrils.
Fast fiber activators were identified by measuring the enzymatic activity of muscle myofibril preparations using the proprietary PUMA™ (see, e.g., U.S. Pat. Nos. 6,410,254, 6,743,599, 7,202,051, and 7,378,254) assay system. Myofibril preparations consisted of rabbit skeletal muscle (approximately 90% fast fibers) that had been mechanically homogenized and washed with a detergent (triton X-100) to remove cellular membranes. This preparation retained all of the sarcomeric components in a native conformation and the enzymatic activity was still regulated by calcium. Compounds were tested using a myofibril suspension and a level of calcium sufficient to increase enzymatic activity of the myofibrils to 25% of their maximal rate (termed pCa25). Enzymatic activity was tracked via a pyruvate kinase and lactate dehydrogenase-coupled enzyme system. This assay regenerates myosin-produced ADP into ATP by oxidizing NADH, producing an absorbance change at 340 nm. The buffering system was 12 mM Pipes, 2 mM MgCl2, 1 mM DTT at pH 6.8 (PM12 buffer).
Using procedures similar to those described herein, utilizing reagents and intermediates commercially available (e.g., Sigma-Aldrich, St. Louis, Mo.) or readily synthesized by one of skill in the art, the compounds in Table 2 were synthesized, characterized and tested. AC1.4 values were determined according to the procedure described in Example 39, and the reported median AC1.4 values are as follows: A=<1 uM; B=1-10 uM; C=10-20 uM; D=>20 uM.

Row | Mean AC1.4 | SMILES
1 | D (D=>20 uM) | CC(C)(CNc1ccc(C(=O)NC2(C(N)=O)CC2)nn1)c1ccc(F)cc1 [1-[(6-{[2-(4-fluorophenyl)-2-methylpropyl]amino}pyridazin-3-yl)carbonylamino]cyclopropane-carboxamide]
2 | C (C=10-20 uM) | NC(=O)c1ccnc(C2(CNc3ccc(-c4ccc5[nH]ncc5c4)nn3)CCC2)c1
3 | C (C=10-20 uM) | NC(=O)c1cccc(-c2ccc(NCCc3ccc(F)c(F)c3)nn2)c1
4 | D (D=>20 uM) | NC(=O)c1cccc(-c2ccc(NCC(CC3OCCO3)c3ccccc3F)nn2)c1 (stereo not drawn)
5 | B (B=1-10 uM) | CC(C)(CNc1ccc(-c2cccc(C#N)c2)nn1)c1ccc(F)cc1 [3-(6-{[2-(4-fluorophenyl)-2-methylpropyl]amino}pyridazin-3-yl)benzenecarbonitrile]
6 | B (B=1-10 uM) | CC(C)(CNc1ccc(-c2ccc3[nH]nc(N)c3c2)nn1)c1ncccc1F [[6-(3-amino(1H-indazol-5-yl))pyridazin-3-yl][2-(3-fluoro(2-pyridyl))-2-methylpropyl]amine]
7 | B (B=1-10 uM) | CNC(=O)c1cccc(-c2ccc(NCC(C)(C)c3ccc(F)cc3)nn2)c1 [[3-(6-{[2-(4-fluorophenyl)-2-methylpropyl]amino}pyridazin-3-yl)phenyl]-N-methylcarboxamide]
8 | B (B=1-10 uM) | CC(C)(CNc1ccc(-c2cc[nH]n2)nn1)c1ccc(F)cc1 [[2-(4-fluorophenyl)-2-methylpropyl](6-pyrazol-3-ylpyridazin-3-yl)amine]
9 | B (B=1-10 uM) | CC(C)(CNc1ccc(-c2cncc(C#N)c2)nn1)c1ccc(F)cc1 [5-(6-{[2-(4-fluorophenyl)-2-methylpropyl]amino}pyridazin-3-yl)pyridine-3-carbonitrile]
10 | A (A=<1 uM) | Nc1n[nH]c2ccc(-c3ccc(NCC4(c5ccc(F)cn5)CCC4)nn3)cc12 [[6-(3-amino(1H-indazol-5-yl))pyridazin-3-yl]{[(5-fluoro(2-pyridyl))cyclobutyl]methyl}amine]
11 | D (D=>20 uM) | CC(C)(CNc1ccc(C(=O)O)nn1)c1ccc(F)cc1 [6-{[2-(4-fluorophenyl)-2-methylpropyl]amino}pyridazine-3-carboxylic acid]
12 | D (D=>20 uM) | COC(=O)NCc1ccc(NCC(C)(C)c2ccc(F)cc2)nn1 [N-[(6-{[2-(4-fluorophenyl)-2-methylpropyl]amino}pyridazin-3-yl)methyl]methoxycarboxamide]
13 | C (C=10-20 uM) | CC(C)(CNc1ccc(C(=O)NCc2cc[nH]n2)nn1)c1ccc(F)cc1 [(6-{[2-(4-fluorophenyl)-2-methylpropyl]amino}pyridazin-3-yl)-N-(pyrazol-3-ylmethyl)carboxamide]

same assay, conditions: median AC1.4 class, procedure of Example 39

Row | Mean AC1.4 | SMILES
14 | B (B=1-10 uM) | N#Cc1ccc(F)c(-c2ccc(NC[C@]3(c4ncccc4F)C[C@H](F)C3)nn2)c1 [4-fluoro-3-[6-({[3-fluoro-1-(3-fluoro(2-pyridyl))cyclobutyl]methyl}ami-no)pyridazin-3-yl]benzenecarbonitrile]
15 | B (B=1-10 uM) | CC(C)(Nc1ccc(-c2cccc(C(N)=O)c2)nn1)c1cccc(F)c1 [3-(6-{[1-(3-fluorophenyl)-isopropyl]amino}pyridazin-3-yl)benzamide]
16 | B (B=1-10 uM) | Fc1cccnc1C1(CNc2ccc(C3CCCCC3)nn2)CCC1 [(6-cyclohexylpyridazin-3-yl){[(3-fluoro(2-pyridyl))cyclobutyl]methyl}amine]
17 | A (A=<1 uM) | O=C(O)c1csc2nc(-c3ccc(NCC4(c5ncccc5F)CCC4)nn3)cn12 [6-[6-({[(3-fluoro-2-pyridyl)cyclobutyl]methyl}ami-no)pyridazin-3-yl]imidazo[2,1-b]1,3-thiazoline-3-carboxylic acid]
18 | C (C=10-20 uM) | CCOC(=O)c1cc(-c2ccc(NC[C@]3(c4ncccc4F)C[C@H](F)C3)nn2)ccc1F [ethyl 2-fluoro-5-[6-({[3-fluoro-1-(3-fluoro(2-pyridyl))cyclobutyl]methyl}ami-no)pyridazin-3-yl]benzoate]
19 | C (C=10-20 uM) | COC(=O)c1ncccc1-c1ccc(NCC2(c3ncccc3F)CCC2)nn1
20 | B (B=1-10 uM) | N#Cc1cc(-c2ccc(NC3(c4ccc(F)cc4)CCC3)nn2)ccn1
21 | D (D=>20 uM) | C=Cc1ccc(NCC2(c3ncccc3F)CCC2)nn1 [{[(3-fluoro(2-pyridyl))cyclobutyl]methyl}(6-vinylpyridazin-3-yl)amine]
22 | D (D=>20 uM) | NC(=O)c1ccc(C2(Nc3ccc(-c4cccc(C(N)=O)c4)nn3)CCC2)cc1
23 | B (B=1-10 uM) | NC(=O)c1ccc(-c2ccc(NCC3(c4ncccc4F)CCC3)nn2)cc1O
24 | A (A=<1 uM) | O=C(NCc1cnc(-c2ccc(NCC3(c4ncccc4F)CCC3)nn2)s1)c1cn[nH]c1 [N-({2-[6-({[(3-fluoro(2-pyridyl))cyclobutyl]methyl}ami-no)pyridazin-3-yl](1,3-thiazol-5-yl)}methyl)pyrazol-4-ylcarboxamide]
25 | D (D=>20 uM) | NC(=O)CNC(=O)c1ccc(NCC2(c3ncccc3F)CCC2)nn1 [N-(carbamoylmethyl)[6-({[(3-fluoro(2-pyridyl))cyclobutyl]methyl}ami-no)pyridazin-3-yl]carboxamide]
26 | A (A=<1 uM) | NC1(C(=O)NCc2cnc(-c3ccc(NCC4(c5ncccc5F)CCC4)nn3)s2)CC1 [(aminocyclopropyl)-N-({2-[6-({[(3-fluoro(2-pyridyl))cyclobutyl]methyl}ami-no)pyridazin-3-yl](1,3-thiazol-5-yl)}methyl)carboxamide]
27 | D (D=>20 uM) | N#Cc1ccc(NCC2(c3ncccc3F)CCC2)nn1 [6-((1-(3-Fluoropyridin-2-yl)cyclobutyl)methylamino)pyridazine-3-carbonitrile]

same assay, conditions: median AC1.4 reported as class; procedure of Example 39

Row | Mean AC1.4 | SMILES
28 | A (A=<1 uM) | CC(C)[C@H](N)C(=O)N[C@H](C(=O)OCC(=O)NCc1cnc(-c2ccc(NCC3(c4ncccc4F)CCC3)nn2)s1)C(C)C [[N-({2-[6-({[(3-fluoro-2-pyridyl)cyclobutyl]methyl}ami-no)pyridazin-3-yl]-1,3-thiazol-5-yl}methyl)carbamoyl]methyl (2S)-2-((2S)-2-amino-3-methylbutanoylamino)-3-methylbutanoate]
29 | B (B=1-10 uM) | COC(=O)c1csc(NC(=O)c2ccc(NCC3(c4ncccc4F)CCC3)nn2)n1 [methyl 2-{[6-({[(3-fluoro-2-pyridyl)cyclobutyl]methyl}ami-no)pyridazin-3-yl]carbonylamino}-1,3-thiazole-4-carboxylate]
30 | D (D=>20 uM) | NC(=O)Cc1nnc(NC(=O)c2ccc(NCC3(c4ncccc4F)CCC3)nn2)s1 [N-[5-(carbamoylmethyl)(1,3,4-thiadiazol-2-yl)][6-({[(3-fluoro(2-pyridyl))cyclobutyl]methyl}ami-no)pyridazin-3-yl]carboxamide]
31 | D (D=>20 uM) | CC(=O)NCc1nc(-c2ccc(NCC3(c4ncccc4F)CCC3)nn2)cs1 [N-({4-[6-({[(3-fluoro-2-pyridyl)cyclobutyl]methyl}ami-no)pyridazin-3-yl]-1,3-thiazol-2-yl}methyl)acetamide]
32 | B (B=1-10 uM) | CC(C)(Nc1ccc(-c2cn3c(C(N)=O)csc3n2)nn1)c1ncccc1Cl [6-(6-{[1-(3-chloro(2-pyridyl))-isopropyl]amino}pyridazin-3-yl)imidazo[2,1-b]1,3-thiazoline-3-carboxamide]
33 | A (A=<1 uM) | C[C@H](O)C(=O)NCc1cnc(-c2ccc(NCC3(c4ncccc4F)CCC3)nn2)s1 [(2S)-N-({2-[6-({[(3-fluoro(2-pyridyl))cyclobutyl]methyl}ami-no)pyridazin-3-yl](1,3-thiazol-5-yl)}methyl)-2-hydroxypropanamide]
34 | B (B=1-10 uM) | NC(=O)c1cc(N)cc(-c2ccc(NC[C@]3(c4ncccc4F)C[C@H](F)C3)nn2)c1 [5-amino-3-[6-({[3-fluoro-1-(3-fluoro(2-pyridyl))cyclobutyl]methyl}ami-no)pyridazin-3-yl]benzamide]
35 | A (A=<1 uM) | CNC(=O)Nc1ccc(-c2ccc(NC[C@]3(c4ncccc4F)C[C@H](F)C3)nn2)cc1 [N-{4-[6-({[3-fluoro-1-(3-fluoro(2-pyridyl))cyclobutyl]methyl}ami-no)pyridazin-3-yl]phenyl}(methylamino)carbox-amide]
36 | A (A=<1 uM) | NC(=O)Cc1csc(NC(=O)c2ccc(NCC3(c4ncccc4F)CCC3)nn2)n1 [N-[4-(carbamoylmethyl)(1,3-thiazol-2-yl)][6-({[(3-fluoro(2-pyridyl))cyclobutyl]methyl}ami-no)pyridazin-3-yl]carboxamide]
